Our source for the IC50 values is patent US11591326B2, “Inhibitors of protein arginine methyltransferase 5 (PRMT5), pharmaceutical products thereof, and methods thereof” (PHARMABLOCK SCIENCES (NANJING), INC., priority 2018, dated 2023).

Like-named read-outs stand apart in the source and are kept apart here.

Common to all, as to format: cell-based
In one assay the test system is EBC-1. Briefly: Lung cancer panel proliferation inhibition, EBC-1. The following applies: Homo sapiens. The procedure: (§1) Inhibitory ability of compounds synthesized on the proliferation of three panels of cancer cell lines, including 5 breast cancer, 6 liver cancer, and 3 lung cancer cell lines were evaluated. Exponentially growing cells were seeded in the media of choice at various cell densities in 384-well plates with 20 ul per well and incubated overnight at 37° C., 5% CO2 incubator. Compounds were prepared as 10-point, 3-fold serial dilutions in DMSO, beginning at 6 mM. 1 μl of DMSO solutions from the compound stock plates were added to 99 ul of cell media (final top concentration of compound in the assay was 30 uM and the final concentration of DMSO was 0.5%). 20 μL of compound solutions in media were added to each well of plates with cells seeded. After adding compound solutions, assay plates were incubated for 8 and 12 days, respectively, at 37° C., 5% CO2. During this incubation period, cell media was changed every 4 days. After removing old media from cell plates, 40 ul of media with testing compounds dissolved, which were prepared by adding 1 ul of compound DMSO serial solutions to 199 ul of cell media, were added to the assay plates with the same layout as they were initially prepared. After 8 or 12 days, cell viability was measured using the CellTiter-Glo assay kit from Promega (Madison, Wis., USA) by quantitating the ATP present in the cell cultures. 20 μL of CellTiter-Glo reagent was added to each well of the cell plates. Luminescence was read after 10 minute of incubation with the Envision multiple plate reader from PerkinElmer (Waltham, Mass., USA). The concentrations of compounds inhibiting cell viability by 50% (IC50 values) were determined using a sigmoidal dose-response model (variable slopes, four parameters) in Prism 7 (La Jolla, Calif., USA).

In assay [1] the test system is Mantle Cell Lymphoma Z-138 cell. The assay can be described thus: Cell proliferation inhibition, Z-138 (CCK8). The following applies: Homo sapiens, Z-138, 96 h, Z-138, incubated 4 days. From the text: Materials and Cell Lines: Z-138, U251, and MIA PaCa2 cells were purchased from ATCC (American Type Culture Collection, Manassas, Va.) and Chinese Academy of Science (Shanghai, China). Iscove's Modified Dulbecco's Medium (IMDM), Dulbecco's Modified Eagle Medium (DMEM), penicillin-streptomycin, heat inactivated fetal bovine serum (FBS), and horse serum was purchased from ThermoFisher, Waltham, Mass., USA. Corning 96- and 384-well cell culture plates were purchased from ThermoFisher, Waltham, Mass., USA. Cell-Titer Glo® was purchased from Promega Corporation, Madison, Wis., USA.
In order to evaluate the inhibitory ability of compounds synthesized on the proliferation of the Mantle Cell Lymphoma Z-138 cell, exponentially growing cells were seeded in the media of IMDM with 10% horse serum and 1% penicillin-streptomycin at a concentration of 30000 cells/ml in a 96-well plate with 100 ul per well and incubated overnight at 37° C., 5% CO2 incubator. Compounds were prepared as 10-point, 3-fold serial dilutions in DMSO, beginning at 6 mM. 1 μl of DMSO solutions from the compound stock plates were added to 99 ul of cell culture media (final top concentration of compound in the assay was 30 uM and the final concentration of DMSO was 0.5%). 100 μL of compound solutions in media were added to each well of Z-138 cell plates. After adding compound solutions, assay plates were incubated for 4 days at 37° C., 5% CO2. Cell viability was measured using the Cell Counting Kit-8 (CCK8) obtained from the Beyotime Biotehnology, Shanghai, China. 20 ul of CCK8 reagent was added to each well of the Z-138 assay plate which was incubated at 37° C. for 2 hours. O.D. at 450 nm was read with the FlexStation 3 microplate reader (Molecular Devices, Sunnyvale, Calif. 94089 USA). The concentrations of compounds inhibiting cell viability by 50% (IC50 values) were determined using a sigmoidal dose-response model (variable slopes, four parameters) in Prism 7 (La Jolla, Calif.).

Another assay has as its system A-549. Briefly: Lung cancer panel proliferation inhibition, A-549. The following applies: Homo sapiens. The method, then: as §1
The test system of the next assay is Huh7. The assay can be described thus: Liver cancer panel proliferation inhibition, Huh7. The following applies: Homo sapiens. The procedure:
as §1

A further assay relates to MCF-7. The assay can be described thus: Breast cancer panel proliferation inhibition, MCF-7. The following applies: Homo sapiens. The procedure:
as §1

The test system of another assay is SNU398. The assay can be described thus: Liver cancer panel proliferation inhibition, SNU398. The following applies: Homo sapiens. The procedure: as §1
Another assay deals with MDA-MB-468. The assay can be described thus: Breast cancer panel proliferation inhibition, MDA-MB-468. The following applies: Homo sapiens. The method, then:
as §1

Where [2] appears, read: 192 h, EBC-1, 8 days, read-out: IC50 (μM) 8 days.
The mark [3] stands for this setting: 288 h, EBC-1, 12 days, read-out: IC50 (μM) 12 days.
The mark [4] stands for this setting: A549, 192 h, A-549, 8 days, read-out: IC50 (μM) 8 days.
Where [5] appears, read: A549, 288 h, A-549, 12 days, read-out: IC50 (μM) 12 days.
[6] abbreviates: Huh-7, 192 h, Huh7, 8 days, read-out: IC50 (μM) 8 days.
The mark [7] stands for this setting: Huh-7, 288 h, Huh7, 12 days, read-out: IC50 (μM) 12 days.
[8] abbreviates: MCF7, 192 h, MCF-7, 8 days, read-out: IC50 (μM) 8 days.
Where [9] appears, read: MCF7, 288 h, MCF-7, 12 days, read-out: IC50 (μM) 12 days.
[10] abbreviates: SNU-398, 192 h, SNU398, 8 days, read-out: IC50 (μM) 8 days.
[11] abbreviates: SNU-398, 288 h, SNU398, 12 days, read-out: IC50 (μM) 12 days.
[12] abbreviates: 192 h, MDA-MB-468, 8 days, read-out: IC50 (μM) 8 days.
[13] abbreviates: 288 h, MDA-MB-468, 12 days, read-out: IC50 (μM) 12 days.

Broadly, the IC50 is the point on the concentration scale where inhibition reaches its midpoint. `CC(=O)N1CCC(Nc2ccc3c(c2)C(=O)N(C[C@H](O)CN2CCc4ccccc4C2)CC3)CC1` [Compound 24a, (R)-7-((1-acetylpiperidin-4-yl)amino)-2-(3-(3,4-dihydroisoquinolin-2(1H)-yl)-2-hydroxypropyl)-3,4-dihydroisoquinolin-1(2H)-one]: the concentration for half-maximal inhibition (IC50) worked out at 0.025 µM in the assay on EBC-1 (setting [2]); 0.03 µM in the assay on EBC-1 (setting [3]); 0.014 µM in assay [1]; 0.064 µM in the assay on A-549 (setting [4]); 0.037 µM in the assay with A-549 (setting [5]); 0.28 µM with Huh7 (setting [6]). Also, the IC50 worked out at 0.072 µM in the assay on Huh7 (setting [7]); 0.016 µM in the assay on MCF-7 (setting [8]); 0.026 µM in the assay with MCF-7 (setting [9]); 0.54 µM in the assay with SNU398 (setting [10]); 0.25 µM in the assay on SNU398 (setting [11]); 0.042 µM with MDA-MB-468 (setting [12]). The IC50 with MDA-MB-468 (setting [13]) was 0.0041 µM.

In the case of `CC(=O)N1CCC(Nc2ccc3c(c2)C(=O)N(C[C@H](O)CN2CCc4ccccc4C2)CCO3)CC1` [Compound 52a, (R)-7-((1-acetylpiperidin-4-yl)amino)-4-(3-(3,4-dihydroisoquinolin-2(1H)-yl)-2-hydroxypropyl)-3,4-dihydrobenzo[f][1,4]oxazepin-5(2H)-one], the half-inhibitory concentration (IC50) is 0.028 µM with EBC-1 (setting [2]); 0.031 µM with EBC-1 (setting [3]); 0.014 µM in assay [1]; 0.13 µM in the assay with A-549 (setting [4]); 0.028 µM in the assay on A-549 (setting [5]); 0.26 µM in the assay with Huh7 (setting [6]). Moreover, the IC50 in the assay on Huh7 (setting [7]) amounted to 0.092 µM; in the assay with MCF-7 (setting [8]), 0.025 µM; in the assay on MCF-7 (setting [9]), 0.021 µM; in the assay with SNU398 (setting [10]), 0.45 µM; in the assay with SNU398 (setting [11]) it was 0.12 µM; with MDA-MB-468 (setting [12]), 0.022 µM. In addition, the IC50 in the assay with MDA-MB-468 (setting [13]) was found to be 0.0038 µM.

As to `CC(=O)N1CCC(Nc2cc(C(=O)NC[C@H](O)CN3CCc4ccccc4C3)ncn2)CC1` [Compound C3, reference compound], the IC50 in the assay on EBC-1 (setting [2]) stood at 0.062 µM; in the assay with EBC-1 (setting [3]), 0.057 µM; in assay [1] it was 0.07 µM; with A-549 (setting [4]), 0.096 µM; in the assay on A-549 (setting [5]) it was 0.066 µM; with Huh7 (setting [6]) it was 0.23 µM. Besides, the IC50 in the assay with Huh7 (setting [7]) is 0.073 µM; in the assay with MCF-7 (setting [9]) it was 0.029 µM; in the assay on SNU398 (setting [10]), 0.83 µM; in the assay with SNU398 (setting [11]) it was 0.41 µM; with MDA-MB-468 (setting [12]), 0.044 µM; in the assay with MDA-MB-468 (setting [13]), 0.0074 µM.
